Patent US20150126467A1, “USE OF ALGINATE OLIGOMERS TO ENHANCE THE EFFECTS OF ANTIFUNGAL AGENTS” (AlgiIPharma AS, priority 2011, published 2015)
≈ marks a conversion by molar mass, not a printed value. Read-outs that look alike come from different tables or passages of the source.

Legend:
[1] = tested on: Candida albicans; test: Robotic MIC assay with asthma/COPD medicaments (Example 5); format: cell-based; settings: for effect on growth of C. albicans: at the given concentrations, data not shown; for influence on the MIC values of nystatin or amphotericin B in combination with OligoG CF5/20: ipratropium bromide and salbutamol at 0.01 mM and 1 mM, budesonide at 0.01 mM, formoterol at 0.5 mM
Description: A robotic MIC Assay was performed as follows. OligoG CF-5/20 were dissolved in medium (Mueller-Hinton broth or M19 broth depending on experiment) to 1.25 times of the desired assay concentrations (2, 6 and 10%). The antifungal agents under test were dissolved in medium without OligoG CF-5/20 and in medium with OligoG CF-5/20 at a concentration of 1.25 times the highest desired assay concentrations. For experiments where the effect of adding different concentrations of Na^+ was investigated, NaCl was dissolved in medium to the desired concentrations (10, 30 and 50 mM).
Two-fold serial dilutions of antifungal agents were made in medium with different concentrations of OligoG CF-5/20, and the solutions were placed in four parallel wells in Nunc 384-well micro plates (30 μl per well in Nunc 242757 microplates). A group of 8 wells with no addition of antifungal agents for each OligoG CF-5/20 concentration was included on each microplate as growth reference. To each well in the 384-well assay plates was added 7.5 μl of medium inoculated with a frozen stock culture of Candida albicans (strain CCUG 39343).
The micro plates were placed in plastic bags and incubated without shaking at 34° C. The optical density at 600 nm in the microwells was measured after approximately 13, 18, 24 and 34 hours of incubation, and the relative growth yield in each well was calculated based on the growth in the reference groups.
The robotic assay described in Example 1 was employed in this Example. […] The concentration utilized for the different components were based on information from Manocha et al. (2006).
In this assay only Mueller-Hinton broth was used since this is the medium specified for standardized MIC assays (Jorgensen et al., 1999).

[2] = tested on: various Aspergillus species; test: Robotic MIC assay, summary over species (Example 4); format: cell-based; settings: Aspergillus species tested
Description: (§1) Aspergillus sp. was grown at 30° C. for 96 h on YM-agar. Spores and aerial mycelium was cut out from the agar, suspended in 1 ml YM-broth and dispersed with glass beads (1 mm) in a mini bead beater for 2 min. Glycerol was added to the suspension to 10% and frozen at −80° C.
(§2) Each batch of frozen stock culture was then characterized in separate growth experiments using Mueller-Hinton broth to determine the minimum amount of inoculum giving satisfactory growth after 48 h under the conditions relevant for the MIC assay. This inoculation procedure is used in order to reduce day to day variation in bioassays.
(§3) Robotic minimum inhibitory concentration (MIC) assay was performed as follows. OligoG CF-5/20 was dissolved in medium (Mueller-Hinton broth) to 1.25 times of the desired assay concentrations (2, 6 and 10%). […].
(§4) Two-fold serial dilutions of antifungal agents were made in medium with different concentrations of OligoG CF-5/20, and the solutions were placed in four parallel wells in Nunc 384-well micro plates (30 μl per well in Nunc 242757 microplates). A group of 8 wells with no addition of antifungal agents for each OligoG CF-5/20 concentration was included on each micro plate as growth reference. Each well in the 384-well assay plates was added 7.5 μl of the MH medium inoculated with frozen stock culture of the relevant strains.
(§5) The microplates were placed in plastic bags and incubated without shaking at 34° C. The optical density at 600 nm in the microwells was measured after approximately 24 and 48 hours of incubation. […]

[3] = tested on: Aspergillus niger CCUG 18919; test: Robotic MIC assay, Aspergillus (Example 4); format: cell-based; settings: Aspergillus niger, CCUG18919, 48 h, Mueller-Hinton broth, read-out: Minimum Inhibitory Concentration (MIC)
Description: as §1, §2, §3, §4, §5

[4] = tested on: Aspergillus fumigatus CCUG 17460; test: Robotic MIC assay, Aspergillus (Example 4); format: cell-based; settings: Aspergillus fumigatus, CCUG17460, 48 h, Mueller-Hinton broth, read-out: Minimum Inhibitory Concentration (MIC)
Description: as §1, §2, §3, §4, §5

[5] = tested on: Aspergillus flavus CCUG 28296; test: Robotic MIC assay, Aspergillus (Example 4); format: cell-based; settings: Aspergillus flavus, CCUG23451 / CCUG28296, 48 h, Mueller-Hinton broth, read-out: Minimum Inhibitory Concentration (MIC)
Description: as §1, §2, §3, §4, §5

[6] = cited from earlier work

Question: Which “effect on growth of C. albicans” value [1] does the source give for `CC(C)[N+]1(C)[C@@H]2CC[C@H]1C[C@@H](OC(=O)C(CO)c1ccccc1)C2.O.[Br-]` (stereo partly shown) [Ipratropium bromide, ipratropium bromide monohydrate] here?
Answer: did not affect growth

Question: What about the “influence on the MIC values of nystatin or amphotericin B in combination with OligoG CF5/20” value [1] of the same molecule?
Answer: do not significantly influence

Question: Which results are given for `C[C@@H](c1ncncc1F)[C@](O)(Cn1cncn1)c1ccc(F)cc1F` [Voriconazole, voriconazole]?
Answer: effect of addition of OligoG CF-5/20 on MIC values [2]: reduction in MIC values; MIC ([3]; A. niger CCUG 18919, 0% OligoG): 0.25 µg/mL (≈ 0.716 µM); MIC ([3]; A. niger CCUG 18919, 2% OligoG): 0.0625 µg/mL (≈ 0.179 µM); MIC ([3]; A. niger CCUG 18919, 6% OligoG): < 0.0312 µg/mL; MIC ([3]; A. niger CCUG 18919, 10% OligoG): < 0.0312 µg/mL; MIC ([4]; A. fumigatus CCUG 17460, 0% OligoG): 0.125 µg/mL (≈ 0.358 µM); MIC ([4]; A. fumigatus CCUG 17460, 2% OligoG): 0.125 µg/mL (≈ 0.358 µM); MIC ([4]; A. fumigatus CCUG 17460, 6% OligoG): 0.0625 µg/mL (≈ 0.179 µM); MIC ([4]; A. fumigatus CCUG 17460, 10% OligoG): 0.0312 µg/mL (≈ 0.0895 µM); MIC ([5]; A. flavus CCUG 23451, 0% OligoG): 0.0625 µg/mL (≈ 0.179 µM); MIC ([5]; A. flavus CCUG 23451, 2% OligoG): 0.0625 µg/mL (≈ 0.179 µM); MIC ([5]; A. flavus CCUG 23451, 6% OligoG): < 0.0312 µg/mL; MIC ([5]; A. flavus CCUG 23451, 10% OligoG): < 0.0312 µg/mL

Question: With `CCCC1O[C@@H]2C[C@H]3[C@@H]4CCC5=CC(=O)C=C[C@]5(C)[C@H]4[C@@H](O)C[C@]3(C)[C@]2(C(=O)CO)O1` (stereo partly shown) [budesonide] as the molecule, how does the solubility in water [6] read?
Answer: limited solubility in water

Question: Which solubility in water [6] does the source give for `CC(C)(C)NCC(O)c1ccc(O)c(CO)c1` (stereo not shown) [salbutamol] here?
Answer: soluble in water

Question: What about the “effect on growth of C. albicans” value [1] of the same molecule?
Answer: did not affect growth

Question: And the “influence on the MIC values of nystatin or amphotericin B in combination with OligoG CF5/20” value [1]?
Answer: do not significantly influence
